PubChem BioAssay AID602487 (The Scripps Research Institute Molecular Screening Center, 2012)
Active and inactive are the calls of the source. How the calls were made is not given here.

system: SARS coronavirus 3C-like protease (3CLpro); test: SARS 3CLpro protease inhibitors, late-stage follow-up, biochemical, fluorescence, single concentration, set 5 (AID 602487); conditions: purified 3CLpro, fluorogenic substrate cleavage; at 100 µM; hits give high values

Row | Compound | inhibition
1 | CC(C)C(=O)Nc1ccc(N(Cc2ccsc2)C(=O)Cn2ccnn2)cc1 | 26.1% (inactive)
2 | CC(C)C(=O)Nc1ccc(N(Cc2ccsc2)C(=O)Cn2cc([Si](C)(C)C)nn2)cc1 | 4.5% (inactive)
3 | CC(=O)Nc1ccc(N(C(=O)Cn2cc([Si](C)(C)C)nn2)C(C(=O)NC(C)(C)C)c2ccsc2)cc1 (stereo not given) | -3.9% (inactive)
4 | CC(C)C(=O)Nc1ccc(N(Cc2ccsc2)C(=O)Cn2cc(-c3ccccc3)nn2)cc1 | 3.7% (inactive)
5 | CC(=O)Nc1ccc(N(C(=O)Cn2ccnn2)C(C(=O)NC(C)(C)C)c2ccsc2)cc1 (stereo not given) | 5.4% (inactive)
